Experimental data taken from patent publication US7196199B2, “Phenoxypropylamine compounds” (Mitsubishi Pharma Corporation, priority 1999, dated 2007).
Counter-ions that a name gives are not always drawn. Like-named read-outs stand apart in the source and are kept apart here. One block for each compound: values may come before it.

Experiments:
5-HT transporter = target: T1, 5-HT transporter (Rattus norvegicus, UniProt P31652); assay: 5-HT transporter binding test
T1 construct: Rat brain cortex was homogenized using Polytron; from tissue; host or cells: rat brain cortex membranes
Method: Rat brain cortex was homogenized using Polytron in ice-cooled 50 mmol/L Tris-HCl buffer (pH 7.4). After centrifugation at 1000×g and 4° C. for 10 min, the supernatant was transferred to a different centrifugation tube. This was centrifuged at 40000×g and 4° C. for 20 min, and 50 mmol/L Tris-HCl buffer (pH 7.4) was added to the sediment to give a suspension. This was incubated at 37° C. for 10 min, centrifuged at 40000×g and 4° C. for 20 min, and suspended in 50 mmol/L Tris-HCl buffer (pH 7.4) (diluted 100-fold of brain wet weight) containing 120 mmol/L NaCl and 5 mmol/L KCl, which was used as a membrane solution. For binding inhibition test, it was reacted with (^3H) paroxetine prepared to the final concentration of 0.2 nmol/L in a plastic test tube at 25° C. for 90 min. For total binding, a solvent was used and for nonspecific binding, fluvoxamine having a final concentration of 10 μmol/L was used.
Using a cell harvester, the reaction mixture was filtered through a GF/B glass filter treated with 0.1% polyethyleneimine to stop the reaction and washed 3 times with 3 mL of ice-cooled 50 mmol/L Tris-HCl buffer (pH 7.4). The radioactivity was measured using a β plate.

5-HT1A receptor [1] = target: T2, 5-HT1A receptor (Rattus norvegicus, UniProt P19327); assay: Electrophysical evaluation of agonist/antagonist of 5-HT1A receptor (nystatin perforated patch clamp, dorsal raphe nuclei cell); assay type: cell-based; set-up: The isolated nerve cell (dorsal raphe nuclei cell) was subjected to nystatin perforated patch clamp method; endogenous in cells; host or cells: acutely dissociated dorsal raphe nuclei neurons of 2-week-old male Wistar rat; conditions: 10^−7 mol/L, isolated rat dorsal raphe nuclei cell; for antagonistic action (% of control) of the test substance on the 8-OH-DPAT induced inward K+ current: 8-OH-DPAT 10^−7 mol/L
T2 sequence (P19327 1-422): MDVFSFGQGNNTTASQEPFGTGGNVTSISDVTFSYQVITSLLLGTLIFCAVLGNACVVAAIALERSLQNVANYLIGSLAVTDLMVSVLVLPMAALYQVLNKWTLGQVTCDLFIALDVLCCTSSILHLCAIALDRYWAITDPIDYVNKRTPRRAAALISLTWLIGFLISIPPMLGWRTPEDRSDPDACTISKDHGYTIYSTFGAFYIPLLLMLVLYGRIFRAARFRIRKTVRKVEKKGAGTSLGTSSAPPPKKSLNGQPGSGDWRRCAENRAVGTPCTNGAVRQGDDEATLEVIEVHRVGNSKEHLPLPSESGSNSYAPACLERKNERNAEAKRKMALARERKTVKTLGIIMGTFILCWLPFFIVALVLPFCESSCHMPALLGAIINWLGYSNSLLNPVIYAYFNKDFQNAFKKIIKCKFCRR
Method: The experiment followed the method of Katayama et al (Brain Res.; 745, 283–292, 1997).
The brain of 2-week-old male Wistar rat was extracted, and a brain thin section (thickness 350 μm) containing dorsal raphe nuclei was prepared using a microslicer. The brain thin section was treated in Ringer's solution containing pronase (0.4 mg/mL) and protease type X (0.25 mg/mL) at 30° C. for 25 min and 15 min, respectively, and the dorsal raphe nuclei region was micropunched out. The brain thin section punched out was subjected to pipetting in a culture dish filled with the Ringer's solution to isolate the nerve cell. The isolated nerve cell (dorsal raphe nuclei cell) was subjected to nystatin perforated patch clamp method (Akaike & Harata, Jpn. J. Physiol.; 44, 433–437, 1994) and the inward K^+ current induced by the test substance and the like was measured under membrane voltage-clamp condition (VH=−60 mV). For the measurement of the inward K^+ current via the 5-HT1A receptor, an extracellular solution and a patch pipette solution having the following compositions were used simultaneously. • extracellular solution (mmol/L): NaCl, 135; KCl, 20; MgCl2, 1; CaCl2, 2; D-glucose, 10; HEPES, 10; tetrodotoxin, 3×10^−4; LaCl3, 10 • patch pipette solution (mmol/L): KCl, 150; HEPES, 10
To the above-mentioned patch pipette solution was added nystatin. (Sigma, Lot No. 33H0762) to the final concentration of 75 μg/mL before the electric measurement.
The current response was measured with a voltage clamp amplifier (List Medical, L/M-EPC7), and the obtained results were recorded on a chart of a recticorder (Nihondenki Sanei, RECTIHORIZ-8K), digitized by a PCM recording device (NF electric Instruments, RP-882) and videotaped by a VCR (Panasonic, NV-G40).
The administration of the test substance and the like followed a Y-tube method (Murase et al., Brain Res.; 525, 84–91, 1990).
First, 8-OH-DPAT (10^−7 mol/L) was administered to the isolated nerve cell (dorsal raphe nuclei cell) obtained above, and the level of the inward K^+ current response was measured.
8-OH-DPAT was washed out for 2 min from the above-mentioned cells and the test substance and pindolol (reference substance which is an antagonist) were administered for 1 min, and the level of the inward K^+ current response by each of them was measured. From immediately after administration of the test substance or the reference substance, a mixture of 8-OH-DPAT ([…]) and the test substance or reference substance was administered, and the level of the induced inward K^+ current response was measured. The measurement results and the level of the current response in the same cell by 8-OH-DPAT alone were compared, based on which the antagonistic action on the 8-OH-DPAT induction current was considered. Every current response was expressed upon standardizing according to the following calculation equation based on the level of the 8-OH-DPAT (10^−7 mol/L) induction current in the same cell.
The inward K^+ current response inducing action (5-HT1A agonistic action) by the test substance alone was determined from the following equation. inward K^+ current response inducing action (%) by test substance alone=(ITD÷IDPAT)×100 • ITD: level of inward K^+ current response by test substance alone • IDPAT: level of 8-OH-DPAT (10^−7 mol/L) induced inward K^+ current in the same cell
The suppressive effect (5-HT1A antagonistic action) on the 8-OH-DPAT induced inward K^+ current by the test substance was determined according to the following equation. antagonistic action of test substance on 8-OH-DPAT induced inward K^+ current (% of control)=(IMIX÷IDPAT)×100
IMIX: level of 8-OH-DPAT (10^−7 mol/L) induced inward K^+ current in the presence of test substance

5-HT1A receptor [2] = target: T2, 5-HT1A receptor; assay: 5-HT1A receptor binding test
Method: The experiment was conducted according to the method of M. D. Hall et al (J. Neurochem. 44, 1685–1696 (1985)).
Cryopreserved rat hippocampus was homogenized in a 20-fold wet weight amount of 50 mM Tris-HCl buffer (pH 7.4), and the homogenate was centrifuged at 500×g for 10 min. The supernatant was centrifuged at 40000×g for 10 min and the sediment was incubated at 37° C. for 10 min, which was followed by centrifugation at 40000×g for 10 min. To the sediment was added a 20-fold amount of 50 mM Tris-HCl buffer (pH 7.4) and the mixture was homogenized, which was followed by centrifugation again at 40000×g for 10 min. 50 mM Tris-HCl buffer (pH 7.4, 100-fold volume) containing 1 mM MnCl2 was added to the sediment and the mixture was homogenized, which was used as a membrane solution. To a 96 well plate were successively added a test solution ([…]), (^3H)-8-OH-DPAT ((±)-8-hydroxy-2-(DL-N-propylamino)tetraline, Sigma, lot No. 57H4131) solution (final concentration 2 nM, […]) and the membrane solution (0.45 ml) preincubated at 37° C., and incubated at 37° C. for 12 min. After completion, the reaction mixture was filtered through a GF/B glass filter and the filter was washed 5 times with 50 mM Tris-HCl buffer (pH 7.4). The radioactivity left on the filter was measured with a Top Count. For total binding measurement, 0.005N hydrochloric acid ([…]) was used, and for the measurement of nonspecific binding, a test solution containing WAY-100635 (final concentration […]) instead of the test substance was used. The total binding and nonspecific binding were measured in quadruplicate, and the test substance was measured in duplicate.
The IC50 value was calculated by two-point interpolation and Ki value was calculated according to the following equation using Kd value obtained from each measurement. Ki=IC50/(1+C/Kd)
IC50: concentration of 50% binding inhibition
C: concentration of ligand

[3] = rat brain cortex membrane, (3H) paroxetine 0.2 nmol/L, read-out: 5-HT transporter binding Ki value
[4] = rat hippocampus membrane, (3H)-8-OH-DPAT 2 nM, read-out: 5-HT1A receptor binding Ki value

T1 sequence (P31652 whole entry): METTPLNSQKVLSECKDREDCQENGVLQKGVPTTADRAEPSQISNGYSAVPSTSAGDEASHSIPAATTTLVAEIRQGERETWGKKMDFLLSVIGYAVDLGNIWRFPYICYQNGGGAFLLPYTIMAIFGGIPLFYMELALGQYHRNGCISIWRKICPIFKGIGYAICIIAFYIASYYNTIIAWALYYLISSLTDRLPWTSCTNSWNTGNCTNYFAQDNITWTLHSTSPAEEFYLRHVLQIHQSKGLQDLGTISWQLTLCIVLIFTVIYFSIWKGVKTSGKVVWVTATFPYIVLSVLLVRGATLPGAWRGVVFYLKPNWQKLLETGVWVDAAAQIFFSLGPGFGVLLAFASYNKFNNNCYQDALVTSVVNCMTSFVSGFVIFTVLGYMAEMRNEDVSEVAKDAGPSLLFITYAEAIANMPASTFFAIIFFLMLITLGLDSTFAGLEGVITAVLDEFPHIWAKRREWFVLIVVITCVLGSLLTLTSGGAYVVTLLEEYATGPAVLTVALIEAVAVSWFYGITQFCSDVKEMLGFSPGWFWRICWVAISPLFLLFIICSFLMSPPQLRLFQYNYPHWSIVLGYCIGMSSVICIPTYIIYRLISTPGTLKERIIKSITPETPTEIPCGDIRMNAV

Structure (SMILES): CC(C)c1nnc(-c2cc3c(OC[C@@H](O)CN4CCC(c5ccc6c(c5)OCO6)CC4)cccc3o2)o1 [Example 138, (S)-1-(2-(5-(1-methylethyl)-1,3,4-oxadiazol-2-yl)benzo(b)furan-4-yloxy)-3-(4-(3,4-methylenedioxyphenyl)piperidino)-2-propanol hydrochloride]
Ki (5-HT transporter; [3]): 1.6 nM
antagonistic action (% of control) of the test substance on the 8-OH-DPAT induced inward K+ current (5-HT1A receptor [1]): almost nil
agonist/antagonist character at 5-HT1A receptor (5-HT1A receptor [1]): silent antagonists
inward K+ current inducing action (%) by the test substance alone (5-HT1A receptor [1]): almost nil
Ki (5-HT1A receptor [2]; [4]): 0.68 nM

Structure (SMILES): Cc1nnc(-c2cc3c(OC[C@@H](O)CN4CCC(c5ccc(Cl)c(C(F)(F)F)c5)CC4)cccc3o2)o1 (as salt: hydrochloride) [Example 234, (S)-1-(4-(4-chloro-3-trifluoromethylphenyl)piperidino)-3-(2-(5-methyl-1,3,4-oxadiazol-2-yl)benzo(b)furan-4-yloxy)-2-propanol hydrochloride]
melting point: 222 to 224 °C

Structure (SMILES): OCc1nnc(-c2cc3c(OC[C@@H](O)CN4CCC(c5ccc(Cl)c(Cl)c5)CC4)cccc3o2)o1 [Example 136, (S)-3-(4-(3,4-dichlorophenyl)piperidino)-1-(2-(5-hydroxymethyl-1,3,4-oxadiazol-2-yl)benzo(b)furan-4-yloxy)-2-propanol]
Ki (5-HT transporter; [3]): 0.18 nM
antagonistic action (% of control) of the test substance on the 8-OH-DPAT induced inward K+ current (5-HT1A receptor [1]): almost nil
agonist/antagonist character at 5-HT1A receptor (5-HT1A receptor [1]): silent antagonists
inward K+ current inducing action (%) by the test substance alone (5-HT1A receptor [1]): almost nil
Ki (5-HT1A receptor [2]; [4]): 0.37 nM

Structure (SMILES): C=C(C)c1nnc(-c2cc3c(OC[C@@H](O)CN4CCC(c5ccc6c(c5)OCO6)CC4)cccc3o2)o1.Cl
melting point: 128 to 130 °C

Structure (SMILES): O[C@H](COc1cccc2[nH]ccc12)CN1CCC(O)(c2ccc3ccccc3c2)CC1 [compound for reference, (S)-1-(4-indolyloxy)-3-[4-hydroxy-4-(2-naphthyl)piperidino]propan-2-ol, reference compound]
Ki (5-HT transporter): 55 nM
agonist/antagonist character at 5-HT1A receptor (5-HT1A receptor [1]): partial agonist
Ki (5-HT1A receptor [2]): 0.16 nM

Structure (SMILES): Cc1nnc(-c2cc3c(OC[C@@H](O)CN4CCC(c5ccc6c(c5)CCCS6)CC4)cccc3o2)o1 (as salt: hydrochloride)
melting point: 223 to 225 °C

Structure (SMILES): CON(C)C(=O)c1cc2c(OC[C@@H](O)CN3CCC(c4ccc5ccccc5c4)CC3)cccc2o1 [Example 6, (S)-4-(2-hydroxy-3-(4-(naphthalen-2-yl)piperidino)propyloxy)-N-methoxy-N-methylbenzo(b)furan-2-carboxamide]
Ki (5-HT transporter; [3]): 1.1 nM
antagonistic action (% of control) of the test substance on the 8-OH-DPAT induced inward K+ current (5-HT1A receptor [1]): almost nil
agonist/antagonist character at 5-HT1A receptor (5-HT1A receptor [1]): silent antagonists
inward K+ current inducing action (%) by the test substance alone (5-HT1A receptor [1]): almost nil
Ki (5-HT1A receptor [2]; [4]): 2.3 nM

Further lines, results first:

melting point: 139 to 141 °C
Structure (SMILES): Cc1nnc(-c2cc3c(OC[C@@H](O)CN4CCC(c5ccc(Cl)c(F)c5)CC4)cccc3o2)o1.Cl

melting point: 188 to 190 °C
Structure (SMILES): Cc1nnc(-c2cc3c(OC[C@@H](O)CN4CCC(c5ccc(C)c(Cl)c5)CC4)cccc3o2)o1 (as salt: hydrochloride)

melting point: 184 to 186 °C
Structure (SMILES): Cc1nnc(-c2cc3c(OC[C@@H](O)CN4CCC(c5ccc(Cl)c(C)c5)CC4)cccc3o2)o1.Cl

melting point: 218 to 220 °C
Structure (SMILES): COc1ccc(C2CCN(C[C@H](O)COc3cccc4oc(-c5nnc(C)o5)cc34)CC2)cc1Cl.Cl

Ki (5-HT transporter; [3]): 0.32 nM
antagonistic action (% of control) of the test substance on the 8-OH-DPAT induced inward K+ current (5-HT1A receptor [1]): almost nil
agonist/antagonist character at 5-HT1A receptor (5-HT1A receptor [1]): silent antagonists
inward K+ current inducing action (%) by the test substance alone (5-HT1A receptor [1]): almost nil
Ki (5-HT1A receptor [2]; [4]): 0.75 nM
Structure (SMILES): Cc1nnc(-c2cc3c(OC[C@@H](O)CN4CCC(c5ccc(Cl)c(Cl)c5)CC4)cccc3o2)o1 [Example 88, (S)-1-(4-(3,4-dichlorophenyl)piperidino)-3-(2-(5-methyl-1,3,4-oxadiazol-2-yl)benzo(b)furan-4-yloxy)-2-propanol hydrochloride 1/4 hydrate]

melting point: 168 to 170 °C
Structure (SMILES): Cc1nnc(-c2cc3c(OC[C@@H](O)CN4CC=C(c5ccc6occc6c5)CC4)cccc3o2)o1 [Example 238, (S)-1-(4-(benzo(b)furan-5-yl)-5,6-dihydro-2H-pyridin-1-yl)-3-(2-(5-methyl-1,3,4-oxadiazol-2-yl)benzo(b)furan-4-yloxy)-2-propanol]

melting point: 135 to 138 °C
Structure (SMILES): Cc1nnc(-c2cc3c(OC[C@@H](O)CN4CC=C(c5ccc6ccoc6c5)CC4)cccc3o2)o1.Cl
